Here are results for 7 compounds from ChEMBL document CHEMBL4184098, “Discovery of novel benzo[b]thiophene tetrazoles as non-carboxylate GPR40 agonists” (Bioorg Med Chem Lett, 2018).

A short description of data set [1]: Cmax in rat at 10 mg/kg, po. The format is ADME, organism-based. Further details: dose 10 mg/kg, route oral. The conditions noted are these: in vivo.
Data set [2] in a line: Volume of distribution at steady state in rat at 10 mg/kg, po or 2 mg/kg, iv. The data set is classed as ADME, organism-based. The conditions noted are these: in vivo, read-out: Vdss.
The nature of data set [3]: Oral bioavailability in rat at 10 mg/kg. To be noted: in vivo. The data set is classed as ADME, organism-based.
Data set [4] can be described thus: Retention time of compound by LC-MS/MS analysis. The data set is classed as physicochemical.
Data set [5] in a line: Plasma concentration in Sprague-Dawley rat at 1 mg/kg, po administered 40 mins prior to glucose-challenge measured at 160 mins post last dose during OGTT assay. The format is ADME, organism-based.
Data set [6] in a line: Plasma concentration in Sprague-Dawley rat at 10 mg/kg, po administered 40 mins prior to glucose-challenge measured at 160 mins post last dose during OGTT assay. The format is ADME, organism-based.
Data set [7] can be described thus: Plasma concentration in Sprague-Dawley rat at 10 mg/kg, po administered 40 mins prior to glucose-challenge measured at 35 mins post last dose during OGTT assay. The data set is classed as ADME, organism-based.
The nature of data set [8]: Plasma concentration in Sprague-Dawley rat at 10 mg/kg, po administered 40 mins prior to glucose-challenge measured at 95 mins post last dose during OGTT assay. The format is ADME, organism-based.
The nature of data set [9]: Plasma concentration in Sprague-Dawley rat at 10 mg/kg, po administered 40 mins prior to glucose-challenge measured at 155 mins post last dose during OGTT assay. The data set is classed as ADME, organism-based.

Take `CC#C[C@@H](Cc1nnn[nH]1)c1ccc(OCc2ccc3scc(-c4ccc(OCCCS(C)(=O)=O)cc4C)c3c2)cc1`: the peak level in data set [1] (Cmax) was 417 ng/mL. In addition, the Vd in data set [2] is 5.1 L/kg. The same compound had a bioavailability in [3] of 56.8%.
On to `CC#C[C@@H](Cc1nnn[nH]1)c1ccc(OCc2ccc3scc(-c4ccccc4C)c3c2)cc1`, for which the peak level in data set [1] (Cmax) was 576 ng/mL. Besides, the Vd in data set [2] was found to be 1.5 L/kg. Besides, the bioavailability in data set [3] was found to be 43.2%. Besides, in data set [4], the Retention_time turned out to be 26.64 min. In addition, the concentration at 160 min in [5] is 0.32 µM; in data set [6] it was 1.85 µM.
In turn, `CC#C[C@@H](Cc1nnn[nH]1)c1ccc(OCc2ccc3sc(C(F)(F)F)c(-c4ccc(OCCOC)cc4C)c3c2)cc1` displayed a concentration at 35 min in [7] of 5.66 µM. Further, the concentration at 95 min in [8] came to 3.9 µM. The concentration at 155 min in data set [9] amounted to 4.41 µM.
Turning to `CC#C[C@@H](Cc1nnn[nH]1)c1ccc(OCc2ccc3scc(-c4ccc(OCC5(C)CS(=O)(=O)C5)cc4C)c3c2)cc1`, in data set [1], the Cmax worked out at 356 ng/mL. In addition, the Vd in [2] was determined as 5.9 L/kg. This compound also displayed a bioavailability in data set [3] of 50.3%.
In data set [1], `CC#C[C@@H](Cc1nnn[nH]1)c1ccc(OCc2ccc3sc(F)c(-c4ccccc4C)c3c2)cc1` yielded a maximum concentration (Cmax) of 1590 ng/mL. The Vd in data set [2] worked out at 2.2 L/kg. This compound registered a bioavailability in data set [3] of 62.3%. The same compound gave a concentration at 160 min in [6] of 3.74 µM.
As to `CC#C[C@@H](Cc1nnn[nH]1)c1ccc(OCc2ccc3sc(Cl)c(-c4ccccc4C)c3c2)cc1`, the peak level in [1] (Cmax) was 4220 ng/mL. Moreover, the Vd in data set [2] was 0.8 L/kg. Also, in [3], the bioavailability stood at 72%. The compound further showed a concentration at 160 min in data set [6] of 8.09 µM.
With `CC#C[C@@H](Cc1nnn[nH]1)c1ccc(OCc2ccc3sc(C(F)(F)F)c(-c4ccccc4C)c3c2)cc1`, the highest level in data set [1] (Cmax) was 2520 ng/mL. Also, the Vd in data set [2] came to 1.1 L/kg. In [3], this compound came in with a bioavailability of 82.1%. This compound had a concentration at 160 min in data set [6] of 7.42 µM.

As a reminder, the Cmax is the peak of the concentration-time curve. As usually defined, the bioavailability is the share of a dose that reaches the circulation, judged against a reference dose that is usually intravenous. Read a high bioavailability as good availability.
